What was measured:
MCF7 breast tumors = test: FASTSPECT dynamic imaging of MCF7 tumor xenografts (MCF7/S and MCF7/D40 together); assay type: in vivo, SCID mice
Procedure: (§1) Tumor cell lines used. MCF7/S: Cells are parental, drug (doxorubicin) sensitive, breast carcinoma cells. MCF7/D40: Cells were generated in vitro by successive culturing parental MCF7 cells in slowly increasing concentrations of doxorubicin with a total selection time of 31 months. Twenty-eight SCID mice were studied. MCF7/S or MCF7/D40 tumors were grown for 10-14 days after subcutaneous injection of 1×10^6 cells into the right thigh. Groups of mice with the xenografted tumors included: (MCF7/S group: MIBI: n=9; GLA: n=8) and (MCF7/D40 group: MIBI: n=6; GLA: n=5).
(§2) The dynamic imaging system SPECT consisted of 24 small modular gamma cameras. Each modular camera consists of a 10 cm×10 cm NaI(Tl) scintillation crystal, 4 square (5 cm×5 cm) Hamamatsu photomultiplier tubes. The system included a cylindrical aperture with twenty four 1-mm diameter pinholes drilled in the aperture. A point source in the center of the field of view is projected simultaneously to the center of each camera. Total magnification is 3.5 in a 3.0 cm×3.2 cm×3.2 cm field of view. The spatial resolution of the system is about 1.0 mm, with a sensitivity of 13.3 cps/μCi.
(§3) ^99mTc-GLA or ^99mTc-MIBI (5-8 mCi, 185-296 MBq) was injected via a jugular vein catheter. Dynamic images were acquired for 2 hours. Twenty-four projections were obtained, one from each camera. Each scintillation event within the camera's NaI crystal was registered as the digitized outputs from the camera's four photomultiplier tubes. The four photomultiplier outputs were compared to a 20-bit look-up table derived from a calibration procedure that involved moving a collimated source across the camera face.
(§4) Tumor image reconstruction was performed using 100 iterations of the maximum-likelihood expectation-maximization (ML-EM) algorithm. Using SlicerDicer software, three-dimensional images were computed to provide images in a 33×49×49 voxels format, and generate tomographic transaxial, coronal and sagittal slices with one-pixel thickness (1.0 mm). Regions of interest (ROI) over the tumors were created and applied to the dynamic images for determining time-activity curves. The percent washout rate relative to the peak uptake of the tumors were calculated.

MCF7/S tumor xenograft = test: FASTSPECT dynamic imaging and tumor washout kinetics, drug-sensitive xenograft; assay type: in vivo, SCID mice
Procedure: as §1, §2, §3, §4

MCF7/S tumors = test: Biodistribution in mice bearing MCF7/S tumors; assay type: in vivo, SCID mice
Procedure: as §1, §3
(§5) Tumors and organs were harvested and counted in a dose calibrator. The percent injected dose per gram (% ID/g) was calculated. Membrane preparations made from MCF7/S and MCF7/D40 tumors were immunoblotted with the mouse monoclonal antibody C219 against Pgp followed by a secondary antibody, which was detected by chemiluminescence. […] No immunodetectable MDR1 Pgp was presented in MCF7/S cells.

MCF7/D40 tumors = test: Biodistribution in mice bearing MCF7/D40 tumors; assay type: in vivo, SCID mice
Procedure: as §1, §3, §5

infarcted hearts = conditions: isoproterenol-induced myocardial infarction; cited from earlier work
BT20 tumors = conditions: cited from earlier work
[1] = Table 2, MCF7/S mice, 2 hours after injection
[2] = Table 4 (Example 3), MCF7/S mice
[3] = Table 2, MCF7/D40 mice, 2 hours after injection
[4] = Table 4 (Example 3), MCF7/D40 mice

^99mTc-glucarate
time tumors remained detectable after injection (MCF7 breast tumors; Example 3): at least 2 hrs | time to initial visualization of tumors after injection (MCF7 breast tumors; FASTSPECT imaging, all tumors of the glucarate groups, i.v.): ≤ 5 min | time to unequivocal localization/visualization of tumors after injection (MCF7 breast tumors; FASTSPECT imaging, i.v.): 10 to 30 min | time radioactive accumulation in the MCF7 tumors remained post-injection (MCF7 breast tumors; dynamic images): at least 120 minutes | two-hour fractional washout (% peak activity) (MCF7/S tumor xenograft): 72.8±3.1% | time after injection at which tumor was first visualized/detected (MCF7/S tumor xenograft; FASTSPECT): ≤ 5 min | time after injection until which tumor stayed visualized/detectable (MCF7/S tumor xenograft; FASTSPECT, 120 min acquisition): at least 120 min | tumor-to-muscle ratio relative to that for 99mTc-sestamibi (fold higher) (MCF7/S tumors; MCF7/S tumors, 2 hours after injection): 9.4 fold | Biodistribution, blood (MCF7/S tumors; [1]): 1.13 ± 0.16 % ID/gm | Biodistribution, heart (MCF7/S tumors; [1]): 0.64 ± 0.08 % ID/gm | Biodistribution, kidneys (MCF7/S tumors; [1]): 22.70 ± 1.38 % ID/gm | Biodistribution, liver (MCF7/S tumors; [1]): 2.04 ± 0.37 % ID/gm | Biodistribution, lung (MCF7/S tumors; [1]): 1.08 ± 0.10 % ID/gm | Biodistribution, muscle (MCF7/S tumors; [1]): 0.27 ± 0.02 % ID/gm | Biodistribution, tumor (MCF7/S tumors; [1]): 1.15 ± 0.17 % ID/gm | Biodistribution, blood (MCF7/S tumors; [2]): 1.19 ± 0.17 % ID/g | Biodistribution, heart (MCF7/S tumors; [2]): 0.70 ± 0.09 % ID/g | Biodistribution, kidneys (MCF7/S tumors; [2]): 22.59 ± 1.38 % ID/g | Biodistribution, liver (MCF7/S tumors; [2]): 2.10 ± 0.35 % ID/g | Biodistribution, lung (MCF7/S tumors; [2]): 1.15 ± 0.11 % ID/g | Biodistribution, muscle (MCF7/S tumors; [2]): 0.29 ± 0.02 % ID/g | Biodistribution, tumor (MCF7/S tumors; [2]): 1.16 ± 0.17 % ID/g | Tumor/Blood ratio (MCF7/S tumors; [2]): 1.13 ± 0.23 | Tumor/Muscle ratio (MCF7/S tumors; [2]): 4.37 ± 0.89 | mean tumor-to-muscle ratio (MCF7/S tumors; drug-sensitive tumors (MCF7/S)): 4.5 | tumor-to-muscle ratio relative to that for 99mTc-sestamibi (fold higher) (MCF7/D40 tumors; MCF7/D40 tumors, 2 hours after injection): 19.2 fold | Biodistribution, blood (MCF7/D40 tumors; [3]): 1.07 ± 0.14 % ID/gm | Biodistribution, heart (MCF7/D40 tumors; [3]): 0.55 ± 0.10 % ID/gm | Biodistribution, kidneys (MCF7/D40 tumors; [3]): 22.10 ± 1.59 % ID/gm | Biodistribution, liver (MCF7/D40 tumors; [3]): 1.56 ± 0.18 % ID/gm | Biodistribution, lung (MCF7/D40 tumors; [3]): 1.41 ± 0.54 % ID/gm | Biodistribution, muscle (MCF7/D40 tumors; [3]): 0.25 ± 0.04 % ID/gm | Biodistribution, tumor (MCF7/D40 tumors; [3]): 1.39 ± 0.12 % ID/gm | Biodistribution, blood (MCF7/D40 tumors; [4]): 1.07 ± 0.14 % ID/g | Biodistribution, heart (MCF7/D40 tumors; [4]): 0.55 ± 0.1 % ID/g | Biodistribution, kidneys (MCF7/D40 tumors; [4]): 22.10 ± 1.59 % ID/g | Biodistribution, liver (MCF7/D40 tumors; [4]): 1.56 ± 0.18 % ID/g | Biodistribution, lung (MCF7/D40 tumors; [4]): 1.41 ± 0.54 % ID/g | Biodistribution, muscle (MCF7/D40 tumors; [4]): 0.25 ± 0.04 % ID/g | Biodistribution, tumor (MCF7/D40 tumors; [4]): 1.39 ± 0.12 % ID/g | Tumor/Blood ratio (MCF7/D40 tumors; [4]): 1.38 ± 0.19 | Tumor/Muscle ratio (MCF7/D40 tumors; [4]): 6.23 ± 0.89 | mean tumor-to-muscle ratio (MCF7/D40 tumors; drug-resistant tumors (MCF7/D40)): 6.2 | uptake in infarcted hearts relative to normal rats (infarcted hearts): 6 times | tumor uptake compared with 99mTc-DTPA (BT20 tumors; BT20 breast tumors): significantly greater | tumor to non-tumor (shoulder region tissue) ratio (BT20 tumors; twelve hours after intravenous injection): 20.53 | tumor uptake compared with 99mTc-sestamibi (BT20 tumors; xenografted BT20 tumors): significantly higher uptake
